Here are results for 1 compound from ChEMBL document CHEMBL5614421, “Structure-activity relationship study of Pseudellone C as anti-glioma agents by targeting TNF/TNFR signaling pathway” (Eur J Med Chem, 2024).

Each structure is given as a SMILES string.

Data set [1] has as its system U-87 MG. Briefly: Induction of apoptosis in human U-87 MG cells at 10 uM incubated for 48 hrs by Annexin V-APC/7-AAD staining based flow cytometric analysis (reference value: 5.43 +/- 0.54 %). The format is functional, U-87MG ATCC. For orientation: A flow cytometer gives signals particle by particle.
The subject of data set [2] is LN-229. Briefly: Induction of apoptosis in human LN-229 cells assessed as late apoptotic cells at 5 uM incubated for 24 hrs by Annexin V-APC/7-AAD staining based flow cytometric analysis (reference value: 3.56 %). It is filed as functional.
Data set [3] concerns U-87 MG. Briefly: Induction of apoptosis in human U-87 MG cells assessed as early apoptotic cells at 20 uM incubated for 24 hrs by Annexin V-APC/7-AAD staining based flow cytometric analysis (reference value: 3.44 %). The format is functional, U-87MG ATCC.
The subject of data set [4] is U-87 MG. Briefly: Induction of apoptosis in human U-87 MG cells assessed as viable cells at 20 uM incubated for 48 hrs by Annexin V-APC/7-AAD staining based flow cytometric analysis (reference value: 94.6 %). Particulars: read-out: Activity. It is filed as functional, U-87MG ATCC.
A short description of data set [5]: Drug concentration in C57BL/6J mouse brain at 9 mg/kg,iv administration measured after 15 mins by LC-MS analysis. The format is ADME, organism-based. Particulars: read-out: Ct.
Data set [6] has as its system LN-229. Briefly: Induction of apoptosis in human LN-229 cells at 20 uM incubated for 24 hrs by Annexin V-APC/7-AAD staining based flow cytometric analysis (reference value: 4.47 +/- 1.09 %). It is filed as functional.
Data set [7] relates to U-87 MG. Briefly: Induction of apoptosis in human U-87 MG cells assessed as necrotic cells at 20 uM incubated for 48 hrs by Annexin V-APC/7-AAD staining based flow cytometric analysis (reference value: 1 %). It is filed as functional, U-87MG ATCC.
Data set [8] has as its system LN-229. Briefly: Induction of apoptosis in human LN-229 cells assessed as viable cells at 10 uM incubated for 24 hrs by Annexin V-APC/7-AAD staining based flow cytometric analysis (reference value: 95.4 %). The format is functional. Particulars: read-out: Activity.
In data set [9] the test system is LN-229. Briefly: Induction of apoptosis in human LN-229 cells assessed as late apoptotic cells at 20 uM incubated for 12 hrs by Annexin V-APC/7-AAD staining based flow cytometric analysis (reference value: 5.1 %). The format is functional.
The subject of data set [10] is U-87 MG. Briefly: Induction of apoptosis in human U-87 MG cells assessed as viable cells at 20 uM incubated for 24 hrs in presence of R7050 by Annexin V-APC/7-AAD staining based flow cytometric analysis (reference value: 85 %). Particulars: read-out: Activity. It is filed as functional, U-87MG ATCC.
The test system of data set [11] is LN-229. Briefly: Induction of apoptosis in human LN-229 cells assessed as necrotic cells at 5 uM incubated for 24 hrs by Annexin V-APC/7-AAD staining based flow cytometric analysis (reference value: 0.56 %). The format is functional.
Data set [12] deals with LN-229. Briefly: Induction of apoptosis in human LN-229 cells assessed as viable cells at 20 uM incubated for 24 hrs by Annexin V-APC/7-AAD staining based flow cytometric analysis (reference value: 91.7 %). The format is functional. Particulars: read-out: Activity.
The subject of data set [13] is U-87 MG. Briefly: Induction of apoptosis in human U-87 MG cells assessed as necrotic cells at 20 uM incubated for 24 hrs by Annexin V-APC/7-AAD staining based flow cytometric analysis (reference value: 0.21 %). The format is functional, U-87MG ATCC.
Data set [14] relates to LN-229. Briefly: Induction of apoptosis in human LN-229 cells assessed as necrotic cells at 20 uM incubated for 24 hrs by Annexin V-APC/7-AAD staining based flow cytometric analysis (reference value: 0.7 %). The format is functional.
For data set [15], the system named is LN-229. Briefly: Induction of apoptosis in human LN-229 cells assessed as viable cells at 20 uM incubated for 24 hrs by Annexin V-APC/7-AAD staining based flow cytometric analysis (reference value: 92.3 %). It is filed as functional. Particulars: read-out: Activity.
The test system of data set [16] is LN-229. Briefly: Induction of apoptosis in human LN-229 cells assessed as late apoptotic cells at 20 uM incubated for 24 hrs in presence of R7050 by Annexin V-APC/7-AAD staining based flow cytometric analysis (reference value: 4.86 %). The format is functional.
The subject of data set [17] is LN-229. Briefly: Induction of apoptosis in human LN-229 cells assessed as early apoptotic cells at 20 uM incubated for 24 hrs by Annexin V-APC/7-AAD staining based flow cytometric analysis (reference value: 0.91 %). The format is functional.

With `CCCCCCCNC(=O)[C@H](Cc1c[nH]c2ccccc12)NC(=O)C(C)(c1c[nH]c2ccccc12)c1c[nH]c2ccccc12`, the Activity with U-87 MG [1] is listed as 17.37%; in the data set on LN-229 [2] it was 3.7%; in the data set with U-87 MG [3], 16.8%; in the data set on LN-229 [6], 21.2%; in the data set on U-87 MG [7] it was 4.65%; in the data set on LN-229 [9], 4.06%. The Activity in the data set on LN-229 [11] came to 0.46%; in the data set on U-87 MG [13] it was 0.47%; in the data set on LN-229 [14] it was 0.87%; with LN-229 [16], 5.88%; in the data set on LN-229 [17] it was 24.2%. Besides, the viability at 20 µM with U-87 MG [4] was 78.7%; in the data set with U-87 MG [10] it was 87.6%; in the data set on LN-229 [12], 81.7%; with LN-229 [15], 66.2%. Also, the concentration at 0.25 h in data set [5] was 91 ng/g. In addition, the viability at 10 µM with LN-229 [8] was 88.1%.
